Data set [1] can be described thus: Solubility of nalmefene HCl in water as a function of pH. Type of data set: physicochemical. The conditions noted are these: aqueous buffer, read-out: Matematically determined solubility in water. As for the experimental part:
Cs is the water solubility of nalmefene.
Because the water solubility of nalmefene was not available in the literature for all the pH values used in the permeation study, the solubilities at pH values 6.5, 7.0, 7.5, and 8.0 were determined matematically from a diagram that described the logarithm of the solubility listed on Table 5 as a function of pH (Cs,pH).

For data set [2] the following is noted: cited from earlier work.

Counter-ions that a name gives are not always drawn. Like-named read-outs stand apart in the source and are kept apart here.

One may read the solubility as the dissolved amount per volume that the medium holds. On to `C=C1CC[C@@]2(O)[C@H]3Cc4ccc(O)c5c4[C@@]2(CCN3CC2CC2)[C@H]1O5` [Nalmefene HCl], for which the solubility in data set [1] (pH 6.5, from diagram of log solubility of Table 5 vs pH) was determined as 112 mg/mL; in data set [1] (pH 7.0, from diagram of log solubility of Table 5 vs pH) it was 88.6 mg/mL; in data set [1] (pH 7.5, from diagram of log solubility of Table 5 vs pH), 31.9 mg/mL; in data set [1] (pH 8.0, from diagram of log solubility of Table 5 vs pH), 0.44 mg/mL. In addition, the Solubility in water in data set [2] (pH 2.25) was 128 mg/mL; in data set [2] (pH 5.71), 131 mg/mL; in data set [2] (pH 6.115), 133 mg/mL; in data set [2] (pH 6.25), 124 mg/mL; in data set [2] (pH 7.85), 1.09 mg/mL; in data set [2] (pH 8.5), 0.180 mg/mL. Besides, the Solubility in water in data set [2] (pH 9.15) is 0.090 mg/mL; in data set [2] (pH 10.4), 0.230 mg/mL.

Values taken from patent US20030153590A1, “Method of treating alcoholism or alcohol abuse” (OY CONTRAL PHARMA LTD, priority 2001, published 2003).
